Key:
HT1080 cells = test: Clonogenic survival (colony formation) assay, HT1080; type: cell-based, human
Protocol: Several of the candidate irestatins were tested in a hypoxia clonogenic survival assay. […] HT1080 fibrosarcoma cells stably were treated with 1 uM of the indicated irestatin or left untreated, and incubated in hypoxia (0.01% oxygen) for 48 hrs at 37° C. Cells were harvested and counted, and allowed to form colonies under normal oxygen tension. Survival rate is expressed as the fraction of colonies formed divided by the total number of cells seeded for each condition. For all experiments, cells were plated in triplicate, and all experiments were repeated at least three times. These experiments were repeated using MiaPaCa2 cells in place of the HT1080 fibrosarcoma cells.
For hypoxia survival assays, cells were grown in 60 mm dishes until reaching at 50-70% confluence and shifted to hypoxia (0.1% O2) for 48 hrs. Cells were trypsinized, counted using a hemocytometer, and replated in triplicate at 1,000-20,000 cells per plate in normal culture medium. After 10-12 days of growth under normal oxygen conditions, colonies were stained with 0.2% crystal violet in ethanol and counted. Survival values are expressed as the number of colonies divided by the total number of cells seeded for each condition, normalized to the plating efficiency under normal oxygen conditions. At least three independent experiments were performed.
A. Effect of irestatin 9389 on PERK and ATF6 pathways. HT1080 cells were treated with vehicle alone (lanes 1-4) or 2.5 μM irestatin 9389 (lanes 5-8) and cultured under aerobic conditions for 18 hours (N) or shifted to hypoxia for the indicated times. Protein lysates were analyzed by Western blot analysis using antisera specific for ATF6 (top), CHOP/GADD153 (middle) or actin (bottom). […] Cells were harvested, counted, and allowed to grow under normal culture conditions for 11-12 days. […] D. Quantification of clonogenic survival assay. […] F. Quantification of TUNEL-positive cells. […] Cells were harvested at the indicated times and counted by hemocytometer. Values represent the mean calculated from triplicate experiments+/−SEM.

phospho-IRE1α = test: Western immunoblot of phospho-IRE1α (IRE1α kinase), HT1080 cells; type: cell-based, human; conditions: preincubated 16 hours, 2.5 μM; Tm 5 μg/ml
Protocol: Cells (2×10^6) were cultured in 10-cm dishes, collected using a cell scraper at 4° C., and lysed by addition of 150 μl cell lysis buffer [50 mM Tris pH 7.4, 150 mM NaCl, 10% glycerol, 0.5% Triton X-100. 0.5% NP-40, 2 mM Na3VO4, 20 mM beta-glycerophosphate, 10 mM NaF, 1 mM DTT, 1 mM PMSF). Lysates were centrifuged for 5 min at 10,000×g, and proteins (˜40 μg) were resolved by SDS-PAGE followed by semi-dry transfer to nitrocellulose membranes. Membranes were blocked in TBS-5% milk supplemented with 0.1% Tween-20. The blots were then probed overnight with relevant antibodies, washed, and incubated for 2 hours with species-specific secondary antibodies conjugated to horseradish peroxidase. After washing in block solution, immunoreactive material was detected by enhanced chemiluminescence (SuperSignal West Dura Extended, Pierce, Inc., Rockville, Ill.).
HT1080 cells were exposed to DMSO vehicle (lane 1), irestatin 9389 (2.5 μM; lane 2) for 16 hours or Tm (5 μg/ml; lane 3) for 8 hours. Following treatments, cells were harvested, lysed, and analyzed by immunoblotting using anti-Grp78 antibody (top) or anti-actin (bottom) as a loading control. […] Cell lysates were analyzed by Western immunoblotting using anti-IRE1α (bottom) or anti-phospho-IRE1α antibodies (top). […] Lysates were analyzed by Western blot using antisera specific for phospho-JNK1 (top) or total JNK1 (bottom). […]

Cc1csc(NC(=O)CSc2nc3c(c(C(F)(F)F)c2C#N)CCC3)n1 [Compound 9389]
colony formation (HT1080 cells; 2.5 μM, hypoxia for 48 hours): strongly inhibited colony formation | survival of HT1080 cells (colony formation) (HT1080 cells; 2.5 μM, normal oxygen conditions): negligible effect on the survival | decrease in the rate of colony formation (HT1080 cells; exposure during hours 40-48 of hypoxia, data not shown): 8 fold | levels of phospho-IRE1α after addition of Tm (phospho-IRE1α): rapid increase in levels of phospho-IRE1α
